# Assay results: US8663602B2, “Method for high-throughput screening of compounds and combinations of compounds for discovery and quantification of actions, particularly unanticipated therapeutic or toxic actions, in biological systems” (The Regents of the University of California, priority 2003, dated 2014)
# Entries after “also recorded” stand apart in the source; their conditions may differ.
# Experiments:
# [1] = Food intake and body weight of mice on 2H2O; type: in vivo; settings: 0.012 ml/gm injection then 4% 2H2O in drinking water
# Experimental: Mice were injected with ^2H2O (deuterated water) 0.012 ml/gm. […] Twenty-one days following the start of ^2H2O administration, mice were fasted for four hours, anesthetized with isoflurane and exsanguinated via heart puncture.
# [2] = Tolerability of maintained 2H2O body water enrichment; type: in vivo, humans; settings: 1-10% of body water labeled, weeks or months; >100 people; rapid changes in enrichment prevented
# Text: Relatively high body water enrichments of ^2H2O (e.g., 1-10% of the total body water is labeled) may be achieved relatively inexpensively using the techniques of the invention. This water enrichment is relatively constant and stable as these levels are maintained for weeks or months in humans and in experimental animals without any evidence of toxicity. This finding in a large number of human subjects (>100 people) is contrary to previous concerns about vestibular toxicities at high doses of ^2H2O. The Applicant has discovered that as long as rapid changes in body water enrichment are prevented (e.g., by initial administration in small, divided doses), high body water enrichments of ^2H2O can be maintained with no toxicities. For example, the low cost of commercially available ^2H2O allows long-term maintenance of enrichments in the 1-5% range at relatively low expense (e.g., calculations reveal a lower cost for 2 months labeling at 2% ^2H2O enrichment, and thus 7-8% enrichment in the alanine precursor pool, than for 12 hours labeling of ^2H-leucine at 10% free leucine enrichment, and thus 7-8% enrichment in leucine precursor pool for that period).
# liver cell = assay: Liver cell proliferation in mice during griseofulvin administration (2H2O labeling); type: in vivo; settings: 1% griseofulvin in chow (low dose, NOEL), 5 days
# Experimental: Cell proliferation was measured as described, supra.
# [3] = Plasma liver enzymes in mice given griseofulvin; type: in vivo; settings: 1% dose; data not shown
# mammary epithelial cell = assay: Mammary epithelial cell (MEC) proliferation in intact and ovariectomized rats by 2H2O labeling, GC/MS; type: in vivo, Sprague-Dawley rats; settings: for MEC proliferation: all doses, treated and labeled for 7 days, in the presence or absence of estrogen; for MEC proliferation rates: even the lowest dose; for mammary epithelial cell proliferation: intact female rats and ovariectomized rats, very low doses
# neuroprogenitor cells = settings: chronic exposure to LPS; Ekdahl et al. 2003; cited from earlier work
# neurons = assay: Neuron turnover (fractional replacement) in mice by 2H2O labeling and GC/MS of DNA from isolated neurons; type: in vivo
# Experimental: Groups of mice (n=5/group) were given a bolus of ^2H2O (Spectra Isotopes, Columbia, Md.) to 5% ^2H2O in body water and were given 8% ^2H2O as drinking water. Mice were maintained on ^2H2O for 45 days, during which period they also received injections every other day of either lipopolysaccharide (LPS) (Sigma, St. Louis, Mo.) in saline at a dose of 1 or 4 mg/kg body weight, or no injection.
# Mice were euthanized with carbon dioxide, and their brains were removed. Hippocampi were dissected out, trypsinized, and stained with tetanus toxoid (Ttx), a specific marker for neurons, and then stained with a FITC labeled anti-Ttx antibody (Roche, Basel Switzerland). […]
# adipocytes = assay: Adipocyte proliferation in ob/ob mice by 2H2O labeling of adipose cell DNA; type: in vivo; settings: murine leptin 2 μg/day s.c. osmotic pump, 21 days 2H2O
# Text: Four week old, female, C57/bl6j mice (Jackson Labs Bar Harbor, […].) were studied: C57/bl6j ^+/? controls (con), ad libitum fed C57/bl6j^lep-/lep- (ob/ob), leptin treated ob/ob (ob-lep) and food restricted ob/ob (ob-r). Mice were housed individually in hanging wire cages and fed AIN 93 purified diets (Bio Serv, Frenchtown, N.J.). Mice were given 3 days to acclimate to the environment, after which mice grew normally. All treatments and interventions began 5 days prior to the start of labeling with ^2H2O.
# Ob-lep mice received murine leptin subcutaneously at a dose of 2 μg/day (Amgen, Thousand Oaks Calif.) via a 28 day Alzet mini osmotic pump (Alza Corp. Palo Alto Calif.).
# Mice were injected with ^2H2O (deuterated water) 0.012 ml/gm. […]
# The frozen slurry of adipocytes was lyophilized, the dry weight of the sample was determined and then the samples were digested and DNA isolated as described elsewhere (Neese, R. A. et al. Advances in the Stable Isotope-Mass Spectrometric Measurement of DNA Synthesis and Cell Proliferation. Anal Biochem 298, 189-195. (2001)) using Quiagen DNeasy tissue kits. The yield of DNA from each sample was determined with a Pharmacia Biotec Genequant II spectrophotometer. […]
# PTA samples were analyzed for incorporation of deuterium on a HP model 5973 MS with a 6890 GC and auto-sampler (Agilent, Palo Alto, Calif.). […]
molecule,measurement,setting,value
"[2H]O[2H] [^2H2O, deuterated water]",food intake or body weight,[1],no impact on food intake or body weight
same,toxicity of maintained body water enrichment,[2],no toxicities
COC1=CC(=O)C[C@@H](C)[C@]12Oc1c(Cl)c(OC)cc(OC)c1C2=O [griseofulvin],liver cell proliferation,liver cell,increased liver cell proliferation
same,plasma liver enzymes,[3],did not induce elevated levels of plasma liver enzymes
O=C(c1ccc(OCCN2CCCCC2)cc1)c1c(-c2ccc(O)cc2)sc2cc(O)ccc12 [raloxifene],MEC proliferation,mammary epithelial cell,Significant reductions of MEC proliferation
same,MEC proliferation rates,mammary epithelial cell,efficacious anti-proliferative agents
same,mammary epithelial cell proliferation,mammary epithelial cell,decrease in mammary epithelial cell proliferation
CC/C(=C(\c1ccccc1)c1ccc(OCCN(C)C)cc1)c1ccccc1 [tamoxifen],MEC proliferation,mammary epithelial cell,Significant reductions of MEC proliferation
same,MEC proliferation rates,mammary epithelial cell,efficacious anti-proliferative agents
same,mammary epithelial cell proliferation,mammary epithelial cell,decrease in mammary epithelial cell proliferation
lipopolysaccharide [LPS],neurogenesis,neuroprogenitor cells,neurogenesis was observed to decrease
same,neuron turnover (fractional replacement of neurons),"neurons; LPS 1 or 4 mg/kg injected every other day, 45 days with 2H2O, vs control, p<0.05, dose dependent",statistically significant increase in neuron turnover; also recorded: turnover more rapidly
same,calculated fractional synthesis rate (f) of new neurons,"neurons; after exposure to LPS, control approximately 7%",~14%
"leptin: murine leptin (Amgen) given subcutaneously via osmotic pump (protein, UniProt P41160 22-167, looked up) Leptin: VPIQKVQDDTKTLIKTIVTRINDISHTQSVSAKQRVTGLDFIPGLHPILSLSKMDQTLAVYQQVLTSLPSQNVLQIANDLENLRDLLHLLAFSKSCSLPQTSGLQKPESLDGVLEASLYSTEVVALSRLQGSLQDILQQLDVSPEC",adipocyte proliferation (fat cell proliferation),adipocytes,decrease in adipocyte proliferation
